{"source": "patent US20180291070A1", "about": "“PEPTIDES, AND USES THEREOF” (priority 2015, published 2018)", "test_system": "GLUT4", "assay": "GLUT4myc translocation in L6 myotubes", "type": "cell-based", "conditions": "100 nM, 30 mins", "from_the_text": "We determined the effect of six synthetic peptides (SP1-6) and four peptide compositions on in vitro GLUT4 translocation using the L6 rat skeletal muscle cell line. A clone of the L6 cell line containing overexpression of GLUT4 tagged with a c-myc epitope (courtesy of Prof. Amira Klip, Hospital for Sick Children, Toronto) was used to investigate the efficacy of each synthetic peptide and peptide composition for effects on GLUT4 translocation in a dose-response design.\nL6-GLUT4myc cells were grown in 10% FBS and 2 μg/ml blasticidin. Cells were grown for 48-72 hours before being seeded in 24-well plates at 15,000 cells per well in 2% FBS and allowed to differentiate for 6 to 8 days prior to experimentation.\nL6-GLUT4myc cells were serum-starved for three hours prior to incubation with 100 nM of insulin for 30 mins, or 200, 20, 2.0 and 0.2 μM of SP, and 2, 1, 0.5 and 0.25 mg/ml of peptide composition for 3 hours respectively. A 3 hour incubation period was selected based on previous findings identifying that incubation with branch chain amino acid containing di-peptides for 3 hours increases glucose uptake in L6 myotubes 1. Treatments were staggered in order to determine GLUT4myc translocation at the same time point.\nThe quantity of myc-tagged GLUT4 at the cell surface was measured by antibody-coupled colorimetric assay. Briefly, after incubation with either insulin for 30 mins or synthetic peptide or peptide composition for 3 hours respectively, L6-GLUT4myc cells were fixed via incubation with 3% paraformaldehyde (PFA). A 0.1 M glycine solution was then added to quench PFA and cells were blocked with 5% goat serum. The myotube monolayer was exposed to anti-myc antibody and then incubated with peroxidase conjugated donkey anti-mouse IgG. 1 mL of o-phenylenediamine dihydrochloride (OPD) reagent was added to each well and this reaction was stopped by adding […] of 3 M HCL. To determine GLUT4 translocation to cell surface, a measured aliquot of each condition was determined spectrophotometrically on a plate reader using absorbance at 492 nm.\nIn addition to an untreated control, 100 nM insulin was utilised to stimulate a maximal GLUT4 translocation response i.e. a positive control in each experiment. […] Treatments were staggered so that all conditions (untreated, insulin and sample) were processed at the same time-point.", "data": [{"substance": "insulin [reference compound]", "values": [{"measurement": "average increase in cell surface GLUT4 translocation compared to untreated control", "result": 1.72, "unit": "fold"}]}]}
